Reference: the supplement of paper PMC10307832

Legend:
Assay in all cases: relative viability (nuclei count vs DMSO), 5 days (fraction); higher = more cells survive
NCI-H1755 = tested on: NCI-H1755
Outline: (§1)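 After 5 days of treatment, lung cancer cells in 1536-well plates were fixed and stained in a single step (final 0.05% Triton X-100, 1% formaldehyde, 1 ug/ml Hoechst) and their nuclei counted on 4× images. Treatment had been applied by pin tool the day after seeding as one drug alone or as a fixed anchor-drug dose with five library-drug doses (not always all listed) in √10 steps. Relative viability is the nuclei count of treated wells divided by that of vehicle wells, and values are medians of duplicate plates.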

NCI-H1395 = tested on: NCI-H1395
Outline: as §1

LCLC-103H = tested on: LCLC-103H
Outline: as §1

HCC-15 = tested on: HCC-15
Outline: as §1

NCI-H1648 = tested on: NCI-H1648
Outline: as §1

A549 = tested on: A549
Outline: as §1

UMC-11 = tested on: UMC-11
Outline: as §1

HCC-44 = tested on: HCC-44
Outline: as §1

EKVX = tested on: EKVX
Outline: as §1

For `Cc1sc2c(c1C)C(c1ccc(Cl)cc1)=N[C@@H](CC(=O)OC(C)(C)C)c1nnc(C)n1-2` [JQ1] + Nc1ncn([C@H]2C[C@H](O)[C@@H](CO)O2)c(=O)n1 [Decitabine] (partner 2 µM), the relative viability (NCI-H1755; first compound 0.04 µM) was 0.744, the relative viability (NCI-H1755; first compound 0.1265 µM) was 0.738 and the relative viability (NCI-H1755; first compound 0.4 µM) was 0.747. It also gave a relative viability (NCI-H1755; first compound 1.265 µM) of 0.731, a relative viability (NCI-H1755; first compound 4 µM) of 0.719 and a relative viability (NCI-H1395; first compound 0.04 µM) of 0.683. It also gave a relative viability (NCI-H1395; first compound 0.1265 µM) of 0.701, a relative viability (NCI-H1395; first compound 0.4 µM) of 0.71 and a relative viability (NCI-H1395; first compound 1.265 µM) of 0.587. For the same compound, the relative viability (NCI-H1395; first compound 4 µM) was 0.457, the relative viability (LCLC-103H; first compound 0.04 µM) was 0.684 and the relative viability (LCLC-103H; first compound 0.1265 µM) was 0.575. It also gave a relative viability (LCLC-103H; first compound 0.4 µM) of 0.544, a relative viability (LCLC-103H; first compound 1.265 µM) of 0.48 and a relative viability (LCLC-103H; first compound 4 µM) of 0.542. It also gave a relative viability (HCC-15; first compound 0.04 µM) of 0.617, a relative viability (HCC-15; first compound 0.1265 µM) of 0.491 and a relative viability (HCC-15; first compound 0.4 µM) of 0.6. It also gave a relative viability (HCC-15; first compound 1.265 µM) of 0.406, a relative viability (HCC-15; first compound 4 µM) of 0.408 and a relative viability (NCI-H1648; first compound 0.04 µM) of 0.497. It also gave a relative viability (NCI-H1648; first compound 0.1265 µM) of 0.652, a relative viability (NCI-H1648; first compound 0.4 µM) of 0.409 and a relative viability (NCI-H1648; first compound 1.265 µM) of 0.398. For the same compound, the relative viability (NCI-H1648; first compound 4 µM) was 0.286, the relative viability (A549; first compound 0.04 µM) was 0.275 and the relative viability (A549; first compound 0.1265 µM) was 0.267. The relative viability (A549; first compound 0.4 µM) was 0.378, the relative viability (A549; first compound 1.265 µM) was 0.405 and the relative viability (A549; first compound 4 µM) was 0.252. For the same compound, the relative viability (UMC-11; first compound 0.04 µM) was 0.514, the relative viability (UMC-11; first compound 0.1265 µM) was 0.468 and the relative viability (UMC-11; first compound 0.4 µM) was 0.328. The relative viability (UMC-11; first compound 1.265 µM) was 0.294, the relative viability (UMC-11; first compound 4 µM) was 0.309 and the relative viability (HCC-44; first compound 0.04 µM) was 0.955. For the same compound, the relative viability (HCC-44; first compound 0.1265 µM) was 0.63, the relative viability (HCC-44; first compound 0.4 µM) was 0.834 and the relative viability (HCC-44; first compound 1.265 µM) was 0.903. It also gave a relative viability (HCC-44; first compound 4 µM) of 0.516, a relative viability (EKVX; first compound 0.04 µM) of 0.338 and a relative viability (EKVX; first compound 0.1265 µM) of 0.36. For the same compound, the relative viability (EKVX; first compound 0.4 µM) was 0.359, the relative viability (EKVX; first compound 1.265 µM) was 0.35 and the relative viability (EKVX; first compound 4 µM) was 0.336.

`COc1cc2nccc(Oc3ccc(NC(=O)Nc4cc(C)on4)c(Cl)c3)c2cc1OC` [Tivozanib] + CC(=O)Nc1cccc(-n2c(=O)n(C3CC3)c(=O)c3c(Nc4ccc(I)cc4F)n(C)c(=O)c(C)c32)c1 [Trametinib] (partner 0.02 µM) showed a relative viability (NCI-H1755; first compound 0.005 µM) of 0.664, a relative viability (NCI-H1755; first compound 0.01581 µM) of 0.75 and a relative viability (NCI-H1755; first compound 0.05 µM) of 0.804. It also gave a relative viability (NCI-H1755; first compound 0.1581 µM) of 0.739, a relative viability (NCI-H1755; first compound 0.5 µM) of 0.77 and a relative viability (NCI-H1395; first compound 0.005 µM) of 0.992. The relative viability (NCI-H1395; first compound 0.01581 µM) was 0.961, the relative viability (NCI-H1395; first compound 0.05 µM) was 1.17 and the relative viability (NCI-H1395; first compound 0.1581 µM) was 0.952. For the same compound, the relative viability (NCI-H1395; first compound 0.5 µM) was 0.938, the relative viability (LCLC-103H; first compound 0.005 µM) was 0.673 and the relative viability (LCLC-103H; first compound 0.01581 µM) was 0.78. It also gave a relative viability (LCLC-103H; first compound 0.05 µM) of 0.694, a relative viability (LCLC-103H; first compound 0.1581 µM) of 0.729 and a relative viability (LCLC-103H; first compound 0.5 µM) of 0.695. The relative viability (HCC-15; first compound 0.005 µM) was 0.391, the relative viability (HCC-15; first compound 0.01581 µM) was 0.365 and the relative viability (HCC-15; first compound 0.05 µM) was 0.364. It also gave a relative viability (HCC-15; first compound 0.1581 µM) of 0.422, a relative viability (HCC-15; first compound 0.5 µM) of 0.395 and a relative viability (NCI-H1648; first compound 0.005 µM) of 0.478. The relative viability (NCI-H1648; first compound 0.01581 µM) was 0.604, the relative viability (NCI-H1648; first compound 0.05 µM) was 0.473 and the relative viability (NCI-H1648; first compound 0.1581 µM) was 0.442. The relative viability (NCI-H1648; first compound 0.5 µM) was 0.429, the relative viability (UMC-11; first compound 0.005 µM) was 0.66 and the relative viability (UMC-11; first compound 0.01581 µM) was 0.67. For the same compound, the relative viability (UMC-11; first compound 0.05 µM) was 0.754, the relative viability (UMC-11; first compound 0.1581 µM) was 0.533 and the relative viability (UMC-11; first compound 0.5 µM) was 0.529. For the same compound, the relative viability (HCC-44; first compound 0.005 µM) was 0.992, the relative viability (HCC-44; first compound 0.01581 µM) was 1.09 and the relative viability (HCC-44; first compound 0.05 µM) was 1.05. The relative viability (HCC-44; first compound 0.1581 µM) was 1.09, the relative viability (HCC-44; first compound 0.5 µM) was 1.07 and the relative viability (EKVX; first compound 0.005 µM) was 0.32. The relative viability (EKVX; first compound 0.01581 µM) was 0.467, the relative viability (EKVX; first compound 0.05 µM) was 0.477 and the relative viability (EKVX; first compound 0.1581 µM) was 0.292. For the same compound, the relative viability (EKVX; first compound 0.5 µM) was 0.345.
